Test results reported in PubChem BioAssay (NCI).
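Cells were grown in 96-well plates and exposed to each compound for 48 hours at five concentrations; endpoints were interpolated linearly between bracketing concentrations, or set to the highest concentration if not reached. GI50 is the concentration that inhibits growth by half. At the TGI there is no net growth.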

Experiments:
Assay in all cases: NCI-60 cell line screen, 48 h
MOLT-4 leukemia = test system: MOLT-4 leukemia
MALME-3M melanoma = test system: MALME-3M melanoma
NCI-H23 lung = test system: NCI-H23 lung
SNB-75 CNS = test system: SNB-75 CNS
CAKI-1 renal = test system: CAKI-1 renal
SK-MEL-2 melanoma = test system: SK-MEL-2 melanoma
HCC-2998 colon = test system: HCC-2998 colon
HL-60(TB) leukemia = test system: HL-60(TB) leukemia
HS 578T breast = test system: HS 578T breast
MDA-MB-231 breast = test system: MDA-MB-231 breast

Structure (SMILES) | TGI (MOLT-4 leukemia) [µM] | TGI (MALME-3M melanoma) [µM] | TGI (NCI-H23 lung) [µM] | TGI (SNB-75 CNS) [µM] | TGI (CAKI-1 renal) [µM] | TGI (SK-MEL-2 melanoma) [µM] | TGI (HCC-2998 colon) [µM] | TGI (HL-60(TB) leukemia) [µM] | GI50 (HS 578T breast) [µM] | TGI (HS 578T breast) [µM] | GI50 (MDA-MB-231 breast) [µM] | TGI (MDA-MB-231 breast) [µM] | GI50 (MOLT-4 leukemia) [µM] | GI50 (NCI-H23 lung) [µM] | GI50 (CAKI-1 renal) [µM] | GI50 (SK-MEL-2 melanoma) [µM] | GI50 (HCC-2998 colon) [µM] | GI50 (HL-60(TB) leukemia) [µM] | GI50 (MALME-3M melanoma) [µM] | GI50 (SNB-75 CNS) [µM]
CC1C=CC(C(N)C(=O)O)O1 (centres undefined) | > 100 | > 100 | > 100 | > 100 | > 100 | > 100 | > 100 | > 100 | – | – | – | – | – | – | – | – | – | – | – | –
CCOC(=O)c1[nH]c2cc(OC)c(OC)cc2c1CN(C)C | > 100 | > 100 | > 100 | > 100 | > 100 | > 100 | > 100 | > 100 | – | – | – | – | – | – | – | – | – | – | – | –
CC1=C(C(=O)Nc2ccc(F)c(Cl)c2)C(c2cccc(Oc3ccccc3)c2)NC(=S)N1 (centres undefined) | > 50 | – | 39.4 | – | > 50 | 27.2 | > 50 | > 50 | 13.3 | 29.2 | 10.7 | 22.9 | > 50 | 19.3 | 15.9 | 9.72 | 23.8 | 17.4 | – | –
COc1cc([N+](=O)[O-])c(S(=O)(=O)O)cc1-n1nc(C(=O)Nc2ccccc2)n[n+]1-c1cc(S(=O)(=O)[O-])c([N+](=O)[O-])cc1OC | > 100 | > 100 | > 100 | > 100 | > 100 | > 100 | – | > 100 | – | > 100 | – | – | – | – | – | – | – | – | – | –
O=C(CCC(=O)Nc1cccc(C(F)(F)F)c1)CC(=O)c1ccc2ccccc2c1 | > 100 | > 100 | > 100 | – | > 100 | > 100 | > 100 | > 100 | – | – | – | – | – | – | – | – | – | – | – | –
CC(=O)Nc1cc2cc(NS(=O)(=O)c3ccc(Cl)c(Cl)c3)ccc2oc1=O | > 100 | – | > 100 | – | 56.4 | > 100 | > 100 | > 100 | – | 59.7 | – | 46.2 | – | – | – | – | – | – | – | –
O=C(N/C(=C\c1ccccc1O)c1nc2ccccc2[nH]1)c1ccccc1 | > 100 | > 100 | > 100 | 36.1 | > 100 | > 100 | > 100 | – | – | – | – | – | – | – | – | – | – | – | – | –
Clc1cccc(CNc2c3ccccc3nc3ccccc23)c1 | 10.7 | 3.02 | 4.93 | 6.44 | 4.82 | 4.22 | 3.19 | 4.35 | – | – | 1.91 | 4.75 | 2.51 | 1.73 | 1.67 | 2 | 1.65 | 1.9 | 1.61 | 1.76
O=C1C=C2CCCC2C(C(=O)O)(C(=O)O)C1 (centres undefined) | > 100 | > 100 | > 100 | > 100 | > 100 | > 100 | > 100 | > 100 | – | – | – | – | – | – | – | – | – | – | – | –
COCCc1n(Cc2ccc3ccccc3c2)c2ccccc2[n+]1Cc1ccc2ccccc2c1 | – | 1.72 | – | – | – | – | – | – | – | – | 0.536 | 1.94 | – | – | – | – | – | – | 0.443 | –
NCCCNc1nc2ccccc2c2c(=O)c3cccc(Cl)c3sc12 | – | 3 | 2.85 | 2.69 | 2.68 | 3.81 | 2.98 | – | – | – | 1.18 | 2.56 | – | 1.4 | 1.28 | 1.88 | 1.48 | – | 1.57 | 1.34
CC(C)COC1Sc2ccccc2S1 | > 100 | 57.2 | 53.4 | 6.36 | 52.4 | – | 45.3 | – | – | – | – | – | – | – | – | – | – | – | – | –
NS(=O)(=O)c1ccc(NC(=O)C2C(=O)C(=O)N(c3ccc(S(N)(=O)=O)cc3)C2=O)cc1 (centres undefined) | > 100 | > 100 | > 100 | > 100 | > 100 | > 100 | > 100 | – | – | – | – | – | – | – | – | – | – | – | – | –
CCCCCCCCCCCCN=C(N)c1ccc(N2CCN(c3ccc(C(N)=NCCCCCCCCCCCC)cc3)CC2)cc1 | > 50 | – | 15.1 | – | > 50 | > 50 | 17 | > 50 | – | – | 10.3 | 20 | 4.4 | 6.2 | 32.3 | 17.5 | 8.67 | 2.15 | – | –
O=C1Nc2ccccc2/C1=C\c1nc(-c2ccccc2F)n2ccccc12 | > 100 | 7.22 | 17.3 | 4.95 | – | 19.6 | > 100 | > 100 | – | – | 2.27 | 9.07 | 28.2 | 4.55 | – | 6.81 | 55.2 | 24.9 | 3.07 | 1.79
